Data: US20250099442A1, “COMPOUNDS FOR USE IN TREATING NEUROLOGICAL DISORDERS” (Prothena Biosciences Limited, priority 2021, published 2025)

Target: DYRK1A (Homo sapiens (Human), UniProt Q13627)
Assay: DYRK1A Inhibition Assay
Type: biochemical
Settings: Compounds of Formula (I); DYRK1A 1 nM, ATP 20 μM, Ser/Thr 18 peptide 2 μM, 90 minutes; read-out: DYRK1 IC50
Method: • DYRK1A—Invitrogen #PV4105 • Ser/Thr 18 peptide—Invitrogen #PR8227U • Phos-Ser/Thr 18 peptide—Invitrogen #PR8229U • Assay plate—PerkinElmer #6007279 • ATP—Sigma #A7699-5G • Development reagent A—Invitrogen #PR5194B • Development buffer—Invitrogen #PR4876B
• 1. Test compounds were diluted to 1 mM in DMSO • 2. Stock was further diluted 3-fold using Echo platform • 3. 100 nL of DMSO into Columns 1 and 24 and 100 nL of compounds dilutions to Columns 2-23 in a plate.
• 1. Add 5 μL enzyme & substrate mixture to each well in Column 2-23 and A24-H24 wells of the 384-well assay plate; • 2. Add 5 μL 0% Phosphorylation control to A1-H1 and I24-P24 wells of the assay plate; • 3. Add 5 μL 100% Phosphorylation control to I1-P1 wells of the assay plate; • 4. Spin the assay plate (1000 rpm, 1 minute @23° C.); • 5. Incubate enzyme with compounds for 15 minutes at 23° C.; • 6. Add 5 μL ATP solution to each well of the assay plate; • 7. Spin the plate (1000 rpm, 1 minute @23° C.); • 8. Incubate the assay plate for 90 minutes at 23° C.; • 9. Add 10 μL Development reagent A to each well of the assay plate; • 10. Centrifuge the plate at 1000 rpm about 15 seconds and seal a film over assay plate. Incubate the assay plate for 30 minutes at 23° C. • 11. Read assay plates on Envision (see Tables A and B).
Final Compound Concentrations […]

C(#CC1CCNCC1)c1ccc2c(-c3ccncc3)c[nH]c2n1 [Compound 97]
IC50: 100 to 1000 nM
